The conditions of data set [1]: cited from earlier work.
Data set [2] concerns rat ileum. Kind of data set: Rat single-pass intestinal perfusion (SPIP) of acetaminophen. The data set is classed as in vivo. The following applies: for Ka / Peff / Concentration: SPIP of ileum; for Concentration: perfusate 2.5 mg/mL AP. The protocol:
At 1 h post-oral administration, all rats were anesthetized with urethane (1.75 g/kg) and placed in a supine position. Approximately 10 cm of ileum was separated from the intestinal segments. Tubes were carefully inserted at both ends of this segment and ligated with a sterile surgical line. The segment was rinsed with 37 °C Krebs–Ringer’s (KR) solution, balanced with KR solution (containing 2.5 mg/mL AP) at a flow rate of 0.2 mL/min for 15 min, and continuously perfused with KR solution (containing 2.5 mg/mL AP). The flow rate was set as 0.2 mL/min. The outflow perfusate was collected in a pre-weighed tube, which was changed quickly every 15 min and weighed. Six tubes of this fluid were collected for each rat. The perfusion solution and outflow perfusate were diluted in methanol–water (1:9, v:v) and analyzed using HPLC.
(§1) HPLC was performed on a Shimadzu LC-20AT HPLC system equipped with a UV detector (Shimadzu, Kyoto, Japan). Sample separation was conducted in a C18 column (5 μm, 4.6 × 150 mm). The mobile phases were methanol (A) and water (B) (1:9, v:v), and the flow rate was 1 mL/min. The volume of each sample injected into the HPLC system was 10 μL. The column temperature was maintained at 25 °C, and the detection wavelength was 275 nm. Ferulic acid (final concentration of 100 μg/mL) was used as an IS.

The nature of data set [3]: Rat brain distribution of acetaminophen (Kp brain). The data set is classed as in vivo. The note with it: AP 1.2 g/kg oral, post-oral administration. The protocol: After 7 or 21 days of tail suspension, all rats were orally administered AP (1.2 g/kg). […] Rat brains were rapidly removed after perfusion with prechilled saline from rat hearts. Then, 0.1 mL of plasma from each rat was used to precipitate proteins with 300 μL of methanol. Approximately 0.1 g of the brain tissue of each rat was homogenized and ultrasonicated in 1 mL of methanol. The supernatant was removed and dried via vacuum centrifugation and reconstituted with methanol for HPLC. The brain distribution of AP was evaluated as the ratio of AP content in brain tissue (μg/g) to that in plasma (μg/mL).
as §1

Details of data set [4]: method as in earlier work. The note with it: 21 and 28 days of SMG treatment in rats; cited from earlier work.
For data set [5], the system named is Wnt/β-catenin signaling pathway. Briefly: Western-Blot of Wnt/β-catenin pathway proteins and P-gp in Caco-2 cells treated with FzM1.8. The data set is classed as cell-based, human. The procedure: Caco-2 cells were purchased from the Chinese Academy of Sciences (Shanghai, China) and maintained in MEM/EBSS medium (Hyclone, UT, USA) supplemented with 10% fetal bovine serum (Sofar, Beijing, China), 1% penicillin–streptomycin liquid (Solarbio, Beijing, China), and 1% nonessential amino acids (Gibco, New York, NY, USA) in a humidified 5% CO2 atmosphere at 37 °C. The Caco-2 cells were seeded in a T-12.5 flask (2 × 10^4 cells/cm^2) and cultured for 21 days under normal gravity. The T-12.5 flask was filled with culture medium while preventing bubble formation and then exposed to SMG using random speed 3D clinostat (National Space Science Center, Beijing, China) for 12, 24, 48, and 72 h. The Caco-2 cells in the CON group were cultured under normal gravity in the same CO2 incubator.
(§2) FzM1.8 and IWP-O1 (Wnt/β-catenin signaling pathway-specific agonist and inhibitor, respectively) were dissolved in dimethyl sulfoxide (DMSO) and diluted with culture medium to obtain the desired concentrations. The final concentration of DMSO was 0.1%. FzM1.8 (2 μM) was added to the Caco-2 cells in the CON + FzM1.8 and SMG + FzM1.8 groups. IWP-O1 (1 nM) was added to the hCMEC/D3 cells in the CON + IWPO-1 and SMG + IWPO-1 groups. The cells in the SMG, SMG + FzM1.8, or SMG + IWPO-1 group were then exposed to SMG for 48 h.
(§3) Total proteins in the rat ileum mucosa and brain and Caco-2 and hCMEC/D3 cells were extracted using radio immunoprecipitation assay buffer containing protease inhibitors and protein phosphatase inhibitors. The supernatant was collected after centrifugation (12,000× g, 4 °C, and 10 min). The protein concentration was tested using Coomassie brilliant blue staining. The supernatant was mixed with 4× protein loading buffer containing dithiothreitol (Solarbio, Beijing, China) and […] in a boiling water bath for 10 min. […] The gray value of each band was collected using Image Lab^TM Software (version 3.0, Bio-Rad, Hercules, CA, USA), and the relative expression levels of proteins were expressed as the ratio of the gray value of the target band to the total proteins in the same lane.

The test system is the same in data set [6]. Briefly: Western-Blot of Wnt/β-catenin pathway proteins and P-gp in hCMEC/D3 cells treated with IWP-O1. The class given is cell-based, human. The procedure:
The hCMEC/D3 cells were purchased from iCell Bioscience Inc. (Shanghai, China) and cultured in RPMI 1640 medium containing 1% penicillin–streptomycin liquid (Solarbio, Beijing, China) and 10% fetal bovine serum (Tianhang, Zhejiang, China) in the same environment as that of Caco-2 cells. The hCMEC/D3 cells were seeded at a density of 6 × 10^4 cells/cm^2 and cultured for 2 days under normal gravity. The flasks were then filled with culture medium and exposed to SMG using random speed 3D clinostat for 24, 48, and 72 h. The hCMEC/D3 cells in the CON group were cultured under normal gravity in the same CO2 incubator.
as §2, §3

In data set [7] the test system is P-gp. Briefly: Intracellular Rho123 fluorescence intensity in hCMEC/D3 cells (P-gp efflux function). The following applies: Rho123 2 μM for 0.5 h. The class given is cell-based, human.
Description: The cells were then washed with phosphate buffer saline (PBS) solution five times (2 mL each time) and treated with 2 mL of 0.1% Triton X-100 for 15 min. The cell solution was transferred to a black 96-well plate (Corning, NY, USA) with six wells in each group and 200 μL in each well after brief centrifugation. The fluorescence intensity of each well was detected using a microplate reader (BioTek, Thorold, ON, Canada). The excitation/emission wavelength of Rho123 was 485/535 nm. After 24, 48, or 72 h of SMG treatment, the hCMEC/D3 cells were treated with 2 mL of medium containing Rho123 (2 μM) for 0.5 h. Subsequent operations were performed in the same way as for Caco-2 cells.
Data set [8] deals with P-gp. Briefly: Ratio of Rho123 concentration in rat brain and blood (P-gp efflux function in rat brain). The data set is classed as in vivo. The following applies: Rho123 0.5 mg/kg tail vein, 15 min post-injection. The procedure: After 45 min, the tail veins of all rats were injected with Rho123 (0.5 mg/kg, Solarbio, Beijing, China). At 15 min post-injection, all rats were anesthetized with chloral hydrate (350 mg/kg), and the blood was collected from the heart. After being subjected to transcardiac perfusion using the stroke-physiological saline solution from the heart, the brain samples of all rats were collected. In summary, 0.1 g of brain samples were homogenized with 0.4 mL of normal saline to obtain brain homogenate. Blank plasma and brain samples were collected from rats without a Rho123 injection and used to prepare Rho123 standard curve samples. The concentration of Rho123 in plasma and brain homogenate from all rats was detected by fluorescence intensity (λ excitation/λ emission = 485/535) using a microplate reader (BioTek, Thorold, ON, Canada). The Kp brain of Rho123 was used to evaluate P-gp efflux function.

Where [9] appears, read: 7 days CON + Ver (30 mg/kg oral) rats.
Where [10] appears, read: 21 days CON + Ver (30 mg/kg oral) rats.

Each structure is given as a SMILES string. Where two headings read alike, the source gives them in different places.

As to `CC(=O)Nc1ccc(O)cc1` [AP, acetaminophen], the “Absorption under SMG” value in data set [1] (80 days of SMG treatment in humans) and in data set [4] was “promoted” each time. Moreover, the Absorption in astronauts entry in data set [1] (two astronauts, mission day 2 compared with before the flight) is “increased”. The Ka in data set [2] (setting [9]) was 8.93 ± 0.37 * 10^−2 min^−1; in data set [2] (7 days CON rats) it was 7.75 ± 0.11 10^−2 min^−1; in data set [2] (7 days SMG rats) it was 8.55 ± 0.21 ** 10^−2 min^−1; in data set [2] (setting [10]), 7.44 ± 0.18 ** 10^−2 min^−1; in data set [2] (21 days CON rats) it was 5.66 ± 0.19 10^−2 min^−1; in data set [2] (21 days SMG rats), 8.76 ± 0.47 ** 10^−2 min^−1. The Peff in data set [2] (setting [9]) is given as 10.77 ± 0.61 * 10^−3 cm/min; in data set [2] (7 days CON rats), 8.86 ± 0.16 10^−3 cm/min; in data set [2] (7 days SMG rats), 10.11 ± 0.33 ** 10^−3 cm/min; in data set [2] (setting [10]), 8.41 ± 0.25 ** 10^−3 cm/min; in data set [2] (21 days CON rats), 6.01 ± 0.23 10^−3 cm/min; in data set [2] (21 days SMG rats), 10.47 ± 0.76 ** 10^−3 cm/min. For the same compound, the Concentration in data set [2] (setting [9]) stood at 1516 ± 52 µg/mL; in data set [2] (7 days CON rats), 1684 ± 15 µg/mL; in data set [2] (7 days SMG rats), 1571 ± 29 µg/mL; in data set [2] (setting [10]), 1727 ± 25 µg/mL; in data set [2] (21 days CON rats) it was 1965 ± 33 µg/mL; in data set [2] (21 days SMG rats), 1540 ± 66 µg/mL. The “Increase of Ka in rat ileum” value in data set [2] (7 days SMG vs CON) is listed as 10.3%; in data set [2] (21 days SMG vs CON) it was 54.8%. In addition, the “Increase of Peff in rat ileum” value in data set [2] (7 days SMG vs CON) was 14.1%; in data set [2] (21 days SMG vs CON), 74.2%. Besides, the “Increase of brain-to-plasma concentration ratio (Kp brain)” value in data set [3] (7 days SMG vs CON) was “approximately 22.0%”; in data set [3] (21 days SMG vs CON), 40.7%.

On to `O=C(Nc1cc(O)cc(C(=O)O)c1)Nc1ccc2ccccc2c1` [FzM1.8], for which the “P-gp expression under SMG (Western-Blot)” value in data set [5] (2 μM before 48 h SMG, vs SMG group) is “up-regulate”. Moreover, in data set [5] (2 μM, 48 h, vs CON group), the “P-gp expression (Western-Blot)” value is listed as “increased” and the “Wnt/β-catenin signaling pathway (Western-Blot)” value is listed as “activated”.

Turning to `O=C(Cn1nnc(-c2ccncc2)c1-c1ccccc1)Nc1ccc(-c2ccccc2)cn1` [IWP-O1], the “P-gp expression under SMG (Western-Blot)” value in data set [6] (1 nM before 48 h SMG, vs SMG group) is “down-regulate”. In data set [6] (1 nM, 48 h, vs CON group), the “P-gp expression (Western-Blot)” value was “decreased” and the “Wnt/β-catenin signaling pathway (Western-Blot)” value is recorded as “inhibited”.

On to `COC(=O)c1ccccc1-c1c2ccc(=N)cc-2oc2cc(N)ccc12` [Rho123, rhodamine 123], for which the “Increase in fluorescence intensity of intracellular Rho123” value is reported as 13.4% in data set [7] (48 h SMG vs CON) and 16.7% in data set [7] (72 h SMG vs CON). For the same compound, the results for the “Increase of ratio of Rho123 concentration in rat brain to that in the blood” value in data set [8] (7 days SMG vs CON) and in data set [8] (21 days SMG vs CON) were 40.5% and 173.8%, respectively.

As for `CC(C)Cc1ccc(C(C)C(=O)O)cc1` (stereo not drawn) [ibuprofen], the “Absorption in humans under SMG” value in data set [1] (in vivo, po) was “promoted”.

Turning to `CC(CN1c2ccccc2Sc2ccccc21)N(C)C` (stereo not drawn) [promethazine], the “Absorption in humans under SMG” value in data set [1] (oral P-gp substrate drugs, humans under SMG) is on record as “promoted”.

(Values after article PMC10049079, “Simulated Microgravity Alters P-Glycoprotein Efflux Function and Expression via the Wnt/β-Catenin Signaling Pathway in Rat Intestine and Brain” (International Journal of Molecular Sciences, 2023).)
